Measured values from patent US8703812B2, “Protein synthesis required for long-term memory is induced by PKC activation on days preceding associative learning” (Blanchette Rockefeller Neurosciences Institute, priority 2005, dated 2014).
Entries after “also recorded” stand apart in the source; their conditions may differ.

Legend:
[1] = cited from earlier work
calexcitin = experiment: Calexcitin immunostaining in B-photoreceptors; type: in vivo, Hermissenda
Experimental: Following experimental treatments and testing, animals were rapidly decapitated, the central nervous systems (CNS) removed and then fixed in 4% para-formaldehyde in 20 mM Tris-buffered (pH 8) natural seawater (NSW; 0.2 μm micropore-filtered). The CNSs were then embedded in polyester wax (20), sectioned (6 μm) and immunostained using a biotinylated secondary antibody coupled to avidin-bound microperoxidase (ABC method, Vector), Aminoethylcarbazole (AEC) was used as the chromogen. The primary polyclonal antibody (designated 25U2) was raised in rabbits from the full length calexcitin protein extracted from squid optic lobes. Gray-scale intensity measures were done from digital photomicrographs on circumscribed cytoplasmic areas of the B-photoreceptors minus the same background area (non-staining neuropile).

Hermissenda Crassicornis = experiment: Pavlovian conditioning of Hermissenda (retention of conditioned response); type: in vivo; settings: for concentration that inhibited acquisition and behavioral retention: all training conditions tested
Experimental: Bryostatin exposure—Specimens of Hermissenda Crassicornis were maintained in artificial sea water (ASW) at 15° for three days in perforated 50-ml conical centrifuge tubes before starting experiments. Bryostatin, purified from the marine bryozoan Bugula neritina, was dissolved in EtOH and diluted to its final concentration in ASW. […] For selected experiments lactacysteine (10 μM) or anisomycin was added to the ASW.
Bryostatin effects on Hermissenda behavior and biochemistry were produced by adding the drug to the bathing medium within an 8 cm long, 1 cm diameter test tube housing each individual animal.
Pavlovian conditioning of Hermissenda involves repeated pairings of a neutral stimulus, light, with an unconditioned stimulus, orbital shaking. (See, Lederhendler et al. (24) and Epstein et al. (6)). A rotation/shaking stimulus excites the statocyst hair cells and thereby elicits an unconditioned response: a brisk contraction of the muscular undersurface called a foot, accompanied by adherence or “clinging” to the surface that supports the foot. Before conditioning, light elicits a weakly positive phototaxis accompanied by lengthening of the foot. After sufficient light-rotation pairings, light no longer elicits phototaxis, but instead elicits a new response (24): the “clinging” and foot shortening previously elicited only by the unconditional stimulus (FIG. 1). Thus, the meaning of the unconditioned stimulus, rotation or orbital shaking, has been transferred to the conditioned stimulus and is manifested by a light-elicited foot contraction—a negative change of foot length. This conditioned response to light can last for weeks, is not produced by randomized light and rotation, is stimulus-specific, and shares the other defining characteristics of mammalian Pavlovian Conditioning.
Pavlovian conditioning of Hermissenda has well-defined training parameters that produce progressively longer-lasting retention of the learned conditioned response. Two training events (2 TE) of paired light and orbital shaking (see “Methods”), for example, induce a learned conditioned response (light-elicited foot contraction or shortening) that persists without drug treatment for approximately 7 minutes. Four to six training events (4-6 TE) induce a conditioned response that persists up to several hours, but disappears approximately by 1 day after training. Nine TE produces long-term associative memory lasting many days and often up to two weeks.

sAPP secretion [2] = settings: human fibroblasts; cited from earlier work
PKC = settings: cited from earlier work
[3] = in vivo; cited from earlier work
[4] = system: Rat hippocampal H19-7/IGF-IR cells; experiment: Protein synthesis by [35S]Methionine incorporation; type: cell-based; settings: single 30-minute exposure to 0.28 nM bryostatin
Experimental: FIG. 17 depicts the effects of bryostatin on protein synthesis. Rat IGF-IR cells were incubated for 30 minutes with 0.28 nM bryostatin for incubation times ranging from 1 to 79 hours. [^35S]Methionine (9.1 μCi) was then added to the medium followed by analysis of radiolabel.
Rat hippocampal H19-7/IGF-IR cells (ATCC) were plated onto poly-L-lysine coated plates and grown at 35° in DMEM/10% FCS for several days until approx. 50% coverage was obtained. The cells were then induced to differentiate into a neuronal phenotype by replacing the medium with 5 ml N2 medium containing 10 ng/ml basic fibroblast growth factor and grown in T-25 flasks at 39° C. (26). Various concentrations of bryostatin (0.01-1.0 nM) were then added in 10 μl aqueous solution. After a specified interval, the medium was removed and the cells were washed with PBS, removed by gentle scraping, and collected by centrifugation at 1000 rpm for 5 min.
In fact, we found here that a single 30-minute exposure to 0.28 nM bryostatin increased overall protein synthesis (FIG. 17), measured by incorporation of ^35-S Methionine in the last ½ hour before collecting the neurons, by 20% within 24 h, increasing to 60% by 79 hours after the bryostatin exposure.

sAPP secretion [5] = experiment: sAPP secretion / alpha-secretase APP processing; type: cell-based; settings: 0.1 nM bryostatin-1

In the case of `CCC/C=C/C=C/C(=O)O[C@H]1/C(=C/C(=O)OC)C[C@H]2C[C@H]([C@@H](C)O)OC(=O)C[C@H](O)C[C@@H]3C[C@H](OC(C)=O)C(C)(C)[C@](O)(C[C@@H]4C/C(=C/C(=O)OC)C[C@H](/C=C/C(C)(C)[C@]1(O)O2)O4)O3` [bryostatin, bryostatin-1], the tolerability ([1]; 20 μg/m^2 once per week for 3 weeks) is listed as “well tolerated and were not associated with myalgia or other side effects”, the maximum-tolerated dose ([1]; 1 hour i.v. infusion once every 2 weeks for 6 weeks) is listed as 50 μg/m^2 and the maximum tolerated dose ([1]; once per week for 8 weeks) is listed as 25 μg/m^2. The “myalgia reported, of all treated patients” value ([1]; phase II clinical trials) was 10 to 87%, the CE immunostaining (calexcitin; 24 hours after 1 bryostatin exposure for four hours, no conditioning) was “not elevated” and the CE immunostaining (calexcitin; 24 hours after 2 bryostatin exposures on two successive days, no conditioning) was “greater residual CE immunostaining”. For the same compound, the “levels of calexcitin in B-photoreceptors” value (calexcitin; bryostatin alone 4-hr over each of 1, 2, and 3 days, measured 24 hours after each) was “progressively increased the levels of calexcitin”, the CE immunostaining (calexcitin; bryostatin plus 6 TE) was “comparable to that observed after 9 TE” and the calexcitin levels increase (calexcitin; paired training (6PTE) with bryostatin 0.25) was “greater than 4.3 ×”. The “rise in calexcitin (CE) immuno-intensity” value (calexcitin; random training (4RTE) with bryostatin 0.25) was 2.0, the CE immunostaining (calexcitin; three 4 hour bryostatin exposures, 2 TE on subsequent day, 24 hours later) was “approached the levels previously observed immediately following 9 TE” and the calexcitin level (calexcitin; two 4-hr bryostatin exposures (0.25 ng/ml) on successive days, then 2-paired TEs) was “significantly increased calexcitin to levels associated with 9-paired TEs; also recorded: raise calexcitin levels to the amount associated with consolidated long-term memory”. For the same compound, the retention (Hermissenda Crassicornis; 2-TEs with two bryostatin exposures) was “more than one week”, the “retention of behavioral conditioning tested after 4 h” value (Hermissenda Crassicornis; 2-paired TEs, bryostatin 0.25 ng/ml from 10-min dark adaptation and 4 h thereafter) was “demonstrated retention of the behavioral conditioning” and the memory retention (Hermissenda Crassicornis; 2 TE plus bryostatin, 4 hours during and after training) was “lasting hours; also recorded: several hours”. For the same compound, the memory retention (Hermissenda Crassicornis; 4 TEs plus bryostatin) was greater than 24 h, the memory duration (Hermissenda Crassicornis; 6 TE with bryostatin (only hours without)) was “many days” and the memory retention (Hermissenda Crassicornis; 4 hour bryostatin on the day preceding training and on the day of 2 TE) was “more than one day”. The retention (Hermissenda Crassicornis; 20 h pre-exposure to bryostatin 0.25 ng/ml, 4-paired TE) was “persisted”, the retention (Hermissenda Crassicornis; 20 hr bryostatin 0.25 ng/ml exposure, 2-paired TE) was no more than 48 h and the “low doses that markedly enhanced memory” value (Hermissenda Crassicornis; after 2, 4, or 6 training trials) was 0.1 to 0.25 ng/mL. For the same compound, the “concentration that inhibited acquisition and behavioral retention” value (Hermissenda Crassicornis) was “greater than 1.0 ng/ml”, the “concentration that inhibited acquisition and behavioral retention” value (Hermissenda Crassicornis; listed as Bryostatin) was no less than 1.0 ng/mL and the “conditioned response (foot contraction) tested at 4 h” value (Hermissenda Crassicornis; bryostatin 0.25 ng/ml before 6-TE conditioning and 4 hours thereafter) was “produced a positive CR”. The “effect on retention performance” value (Hermissenda Crassicornis; bryostatin <0.50 ng/ml, 9-paired TEs) was “no demonstrable effects on retention performance”, the “memory retention versus 4 hour exposures” value (Hermissenda Crassicornis; bryostatin exposure for 8 to 20 hours followed by 2 TE) was “not sufficient” and the “behavioral retention lost after” value (Hermissenda Crassicornis; bryostatin only 4 h, 2-paired TEs 24 hrs later) was no more than 24 h. For the same compound, the conditioned response (Hermissenda Crassicornis; randomized presentations of light and rotation, with bryostatin) was “produced no conditioned response”, the “long-term retention (tested with CS alone at 4 h, then 24-h intervals)” value (Hermissenda Crassicornis; sub-optimal 4- and 6-paired TEs, bryostatin 0.25 ng/ml from dark adaptation and for 4 hours) was “all demonstrated long-term retention” and the “concentrations that augment acquisition and memory retention” value (Hermissenda Crassicornis; sub-optimal (4 TE) training) was less than 0.50 ng/mL. The “long-term retention (LTR) post-training” value (Hermissenda Crassicornis; three successive days of 4-h bryostatin 0.25 ng/ml, one day later 2-TEs) was no less than 96 h, the long-term retention (Hermissenda Crassicornis; two successive days of 4-h bryostatin 0.25 ng/ml, 2-paired TEs) was “at least 6 days” and the “alpha-secretase cleavage of APP to sAPP” value (sAPP secretion [2]) was “activate the alpha-secretase”. For the same compound, the “concentrations that activate PKC” value (PKC) was “sub-nanomolar”, the “rat spatial maze learning” value [3] was “enhanced” and the “increase of overall protein synthesis” value ([4]; by 79 hours) was 60%. For the same compound, the “increase of overall protein synthesis” value ([4]; within 24 h) was 20% and the sAPP secretion (sAPP secretion [5]) was “dramatic increase of sAPP secretion”.
